Experimental data taken from article PMC9562341, “AI protein structure prediction-based modeling and mutagenesis of a protostome receptor and peptide ligands reveal key residues for their interaction” (The Journal of Biological Chemistry, 2022).
Entries after “also recorded” stand apart in the source; their conditions may differ. Like-named read-outs stand apart in the source and are kept apart here. One block for each substance: values may come before it. Where no end group is shown, it is not given here.

Columns and labels:
Anopheles LKR = target: T1, Anopheles LKR (Anopheles stephensi, UniProt Q694V6); experiment: IP1 accumulation assay, CHO-K1 cells cotransfected with Anopheles LKR and promiscuous Gαq; format: cell-based; conditions: log scale, mean ± SEM, n = 3
T1 sequence (Q694V6 1-573): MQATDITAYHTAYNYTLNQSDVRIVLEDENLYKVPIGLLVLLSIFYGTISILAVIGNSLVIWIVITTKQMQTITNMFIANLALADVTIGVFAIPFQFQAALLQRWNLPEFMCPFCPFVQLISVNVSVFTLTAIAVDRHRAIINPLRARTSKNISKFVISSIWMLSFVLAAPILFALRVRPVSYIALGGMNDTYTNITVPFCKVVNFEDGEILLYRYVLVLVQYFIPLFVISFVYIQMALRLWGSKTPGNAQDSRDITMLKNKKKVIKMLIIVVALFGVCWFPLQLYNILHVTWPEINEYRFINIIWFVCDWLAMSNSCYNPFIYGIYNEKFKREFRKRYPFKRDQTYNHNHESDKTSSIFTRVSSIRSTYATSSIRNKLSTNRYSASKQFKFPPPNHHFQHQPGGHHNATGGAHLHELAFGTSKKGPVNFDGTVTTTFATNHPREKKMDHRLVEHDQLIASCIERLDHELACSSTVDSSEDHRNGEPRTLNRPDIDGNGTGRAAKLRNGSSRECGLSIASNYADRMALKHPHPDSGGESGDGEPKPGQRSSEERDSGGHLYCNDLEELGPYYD
Description: Considering the similarity of leucokinin-like peptides in different species (Fig. 1), we sought to evaluate cross-activity between leucokinin peptides and their receptors in different species. We selected A. stephensi because it is a pest, and this would also provide an opportunity to determine if Aplysia LKs could be potentially used as insecticides ([67]). […] Thus, we cotransfected promiscuous Gαq with the Anopheles receptor, whereas there was no cotransfection of promiscuous Gαq for ALKR.
(§1) IP1 accumulation assay measures concentration of IP1 ([88]), that is hydrolyzed from the second messenger, inositol trisphosphate, generated by Gαq pathway when GPCR expressed in CHO-K1 cells is activated by an appropriate ligand. We note two reasons that we selected mammalian CHO-K1 cells for assays for ligand-receptor (GPCR) activity: (1) there are no established molluscan cell lines available; (2) CHO-K1 cells have been extensively utilized not only for vertebrate GPCRs (e.g., ([97])) but also for invertebrate/protostome GPCRs, including other molluscs ([9], [11], [73]), annelids ([8]), jellyfish ([98]), Caenorrhabditis elegans ([99]), and arthropods ([76], [78], [79], [80]). Given that LKRs are only present in protostomes ([6], [7], [66], [67]), an additional advantage of using mammalian cells to assay ligand-receptor activity is that the effects of a possible native LKR in protostome cell lines could be excluded.
In order to express the Aplysia putative receptor transiently in CHO-K1, the cDNA was cloned into the mammalian expression vector pcDNA3.1(+). […] Transfection experiments were performed when the cells were grown to 70 to 90% confluence. For the ALKR, in each dish (60-mm diameter), 4 μg of the putative receptor plasmids [in pcDNA3.1(+)] were mixed with 400 μl of Opti-MEM (Gibco, 11058021), followed by the addition of 15 μl of Turbofect (Thermo Fisher Scientific, R0531). […] Thus, 3 μg of the putative receptor plasmids [in pcDNA3.1(+)] and 3 μg of promiscuous Gαq protein ([89]) [in pcDNA3.1(+)] were cotransfected in the above procedure for the Anopheles LKR ([8], [10]). The CHO-K1 cells with the reagents added above were mixed gently and incubated at room temperature for 15 min. The DNA/Turbofect mixture dropwise was then added to the dish, and the cells were incubated at 37 °C in 5% CO2 overnight. The next day, the cells were trypsinized and reseeded in opaque white 96-well half-area (Corning, 3688) or 384-well tissue culture–treated plates (Corning, 3570) at a density of 20,000 cells/well in F-12K and 10% FBS and incubated at 37 °C in 5% CO2 overnight. On the third day, the activation of the receptors was detected by monitoring IP1 accumulation using IP1 detection kit (Cisbio, 62IPAPEB) with a Tecan Spark plate reader. […]

ALKR Q133A = ALKR Q133A (Aplysia californica, UniProt A0A977Q7Q2, Q133A); experiment: IP1 accumulation assay, ALKR mutant Q133A in CHO-K1; format: cell-based
Chain of ALKR Q133A (A0A977Q7Q2 entry or part of it Q133A): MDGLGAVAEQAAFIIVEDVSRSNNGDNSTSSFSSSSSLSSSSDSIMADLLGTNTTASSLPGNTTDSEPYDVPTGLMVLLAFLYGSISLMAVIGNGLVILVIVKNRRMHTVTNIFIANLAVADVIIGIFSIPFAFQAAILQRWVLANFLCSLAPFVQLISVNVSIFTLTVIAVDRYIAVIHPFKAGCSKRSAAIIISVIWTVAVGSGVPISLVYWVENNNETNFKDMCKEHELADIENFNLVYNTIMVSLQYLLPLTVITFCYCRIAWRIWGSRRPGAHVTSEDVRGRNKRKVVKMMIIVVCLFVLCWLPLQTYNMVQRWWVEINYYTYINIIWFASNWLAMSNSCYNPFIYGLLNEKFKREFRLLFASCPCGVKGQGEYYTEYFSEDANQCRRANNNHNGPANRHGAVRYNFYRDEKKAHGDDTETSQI
Description: as §1
(§2) In order to express the Aplysia putative receptor transiently in CHO-K1, the cDNA was cloned into the mammalian expression vector pcDNA3.1(+). […] Transfection experiments were performed when the cells were grown to 70 to 90% confluence. […] On the third day, the activation of the receptors was detected by monitoring IP1 accumulation using IP1 detection kit (Cisbio, 62IPAPEB) with a Tecan Spark plate reader. […]

[1] = target: T2, ALKR (Aplysia leucokinin-like peptide receptor) (Aplysia californica, UniProt A0A977Q7Q2); experiment: IP1 accumulation assay, CHO-K1 cells transfected with ALKR; format: cell-based; conditions: for Activation of ALKR (in words): IP1 accumulation in CHO-K1 transfected with ALKR; for EC50: CHO-K1 transiently transfected with ALKR, no promiscuous Gαq, ALK1 n = 13, ALK2 n = 4, others n = 3
T2 sequence (A0A977Q7Q2 1-429): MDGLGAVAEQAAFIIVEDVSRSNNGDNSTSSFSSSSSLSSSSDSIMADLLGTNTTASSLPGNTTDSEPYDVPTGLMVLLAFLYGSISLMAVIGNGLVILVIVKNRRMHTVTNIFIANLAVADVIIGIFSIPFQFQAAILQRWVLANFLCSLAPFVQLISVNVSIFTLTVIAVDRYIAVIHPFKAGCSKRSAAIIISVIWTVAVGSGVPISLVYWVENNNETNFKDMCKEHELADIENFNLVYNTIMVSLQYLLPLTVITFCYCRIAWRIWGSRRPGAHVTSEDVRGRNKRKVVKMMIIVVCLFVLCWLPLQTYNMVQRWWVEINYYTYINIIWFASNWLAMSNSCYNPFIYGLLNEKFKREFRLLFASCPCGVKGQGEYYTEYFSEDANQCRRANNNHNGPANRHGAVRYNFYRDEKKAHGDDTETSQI
Description: To examine whether the native ALKs could activate the putative ALKR, we expressed the ALKR in Chinese hamster ovary K1 (CHO-K1) cells and examined ALK-mediated changes in the concentration of inositol monophosphate (IP1), a degradation product of the second messenger (inositol trisphosphate) in the Gq signaling pathway upon ligand-induced activation ([88]) (Figs. 4 and S5). […] All endogenous ALK peptides could activate ALKR in a dose-dependent manner (Fig. 4, A–C). […] The lowest EC50 values were for ALK8 (EC50 = 10 nM) and ALK9 (EC50 = 10 nM). The EC50 values for ALK1, ALK2, ALK3, ALK4, ALK5, ALK10, ALK13 were slightly higher than that of ALK9, but there was no statistically significant difference between them (Table S5).
as §1
In order to express the Aplysia putative receptor transiently in CHO-K1, the cDNA was cloned into the mammalian expression vector pcDNA3.1(+). […] Transfection experiments were performed when the cells were grown to 70 to 90% confluence. For the ALKR, in each dish (60-mm diameter), 4 μg of the putative receptor plasmids [in pcDNA3.1(+)] were mixed with 400 μl of Opti-MEM (Gibco, 11058021), followed by the addition of 15 μl of Turbofect (Thermo Fisher Scientific, R0531). […] Thus, 3 μg of the putative receptor plasmids [in pcDNA3.1(+)] and 3 μg of promiscuous Gαq protein ([89]) [in pcDNA3.1(+)] were cotransfected in the above procedure for the Anopheles LKR ([8], [10]). The CHO-K1 cells with the reagents added above were mixed gently and incubated at room temperature for 15 min. The DNA/Turbofect mixture dropwise was then added to the dish, and the cells were incubated at 37 °C in 5% CO2 overnight. The next day, the cells were trypsinized and reseeded in opaque white 96-well half-area (Corning, 3688) or 384-well tissue culture–treated plates (Corning, 3570) at a density of 20,000 cells/well in F-12K and 10% FBS and incubated at 37 °C in 5% CO2 overnight. On the third day, the activation of the receptors was detected by monitoring IP1 accumulation using IP1 detection kit (Cisbio, 62IPAPEB) with a Tecan Spark plate reader. Except for using 0.5 × reagents for the anti-IP1-cryptate and IP1-d2 reagents, all other procedures were performed in accordance with the IP1 detection kit manufacturer’s instructions.

ALKR Q317A = ALKR Q317A (Aplysia californica, UniProt A0A977Q7Q2, Q317A); experiment: IP1 accumulation assay, ALKR mutant Q317A in CHO-K1; format: cell-based
Chain of ALKR Q317A (A0A977Q7Q2 entry or part of it Q317A): as the sequence (A0A977Q7Q2 entry or part of it Q133A) above, with A133Q, Q317A counted along it
Description: as §1, §2

ALKR L157Q = ALKR L157Q (Aplysia californica, UniProt A0A977Q7Q2, L157Q); experiment: IP1 accumulation assay, ALKR mutant L157Q in CHO-K1; format: cell-based; conditions: mutant without FLAG tag, n = 3
Chain of ALKR L157Q (A0A977Q7Q2 entry or part of it L157Q): as the sequence (A0A977Q7Q2 entry or part of it Q133A) above, with A133Q, L157Q counted along it
Description: as §1, §2

ALKR Q317N = ALKR Q317N (Aplysia californica, UniProt A0A977Q7Q2, Q317N); experiment: IP1 accumulation assay, ALKR mutant Q317N in CHO-K1; format: cell-based
Chain of ALKR Q317N (A0A977Q7Q2 entry or part of it Q317N): as the sequence (A0A977Q7Q2 entry or part of it Q133A) above, with A133Q, Q317N counted along it
Description: as §1, §2

ALKR I329Q = ALKR I329Q (Aplysia californica, UniProt A0A977Q7Q2, I329Q); experiment: IP1 accumulation assay, ALKR mutant I329Q in CHO-K1; format: cell-based
Chain of ALKR I329Q (A0A977Q7Q2 entry or part of it I329Q): as the sequence (A0A977Q7Q2 entry or part of it Q133A) above, with A133Q, I329Q counted along it
Description: as §1, §2

ALKR Y213A = ALKR Y213A (Aplysia californica, UniProt A0A977Q7Q2, Y213A); experiment: IP1 accumulation assay, ALKR mutant Y213A in CHO-K1; format: cell-based
Chain of ALKR Y213A (A0A977Q7Q2 entry or part of it Y213A): as the sequence (A0A977Q7Q2 entry or part of it Q133A) above, with A133Q, Y213A counted along it
Description: as §1, §2

ALKR N314A = ALKR N314A (Aplysia californica, UniProt A0A977Q7Q2, N314A); experiment: IP1 accumulation assay, ALKR mutant N314A in CHO-K1; format: cell-based
Chain of ALKR N314A (A0A977Q7Q2 entry or part of it N314A): as the sequence (A0A977Q7Q2 entry or part of it Q133A) above, with A133Q, N314A counted along it
Description: as §1, §2

[2] = target: Aplysia leucokinin-like peptide receptor (Aplysia californica)
[3] = target: Aplysia leucokinin-like peptide receptor (Aplysia californica); remark: listed apart in the source
[4] = log scale, IP1 detection kit (Cisbio), mean ± SEM, inactive: greater than highest concentration tested, read-out: log [EC50] on ALKR (converted)
[5] = IP1 accumulation, average, rounded to two significant figures, read-out: EC50 on ALKR

Substance: PAFHSWS-NH2 [ALK1]
EC50 (Anopheles LKR): 282 nM
EC50 (ALKR Q133A): 77.6 nM
Activation of ALKR (in words) [1]: active
EC50 [1, 4]: 13.8 nM
EC50 (ALKR Q317A): 56.2 nM
EC50 (ALKR L157Q; EC50 on ALKR L157Q): 77 nM
EC50 (ALKR L157Q; log [EC50] on ALKR L157Q, log scale, mean ± SEM): 70.8 nM
EC50 (ALKR Q317N): 25.1 nM
EC50 (ALKR I329Q): 6760 nM
EC50 (ALKR Y213A): 372 nM
EC50 (ALKR N314A): 110 nM

Substance: PAFNAWG-NH2 [ALK8]
EC50 (Anopheles LKR): 40.7 nM
EC50 [1, 4]: 10.2 nM

EC50 of IP1 accumulation in CHO-K1 cells transfected with ALKR [2]: 51 nM
Substance: ALK1 with H4 replaced with A (peptide)

Substance: PRFHAWS-NH2 [ALK7]
EC50 [1, 4]: 91.2 nM

Substance: PAFHAWG-NH2 [ALK10]
EC50 [1, 4]: 21.4 nM

Substance: PAFHSWA-NH2 [ALK1_A7]
EC50 [1, 4]: 28.2 nM

Substance: PAFHSWS-OH [ALK1-OH]
EC50 [1, 5]: > 10000 nM
Activation of ALKR (in words) [1]: not active; also recorded: not able to activate
EC50 [1, 4]: > 10000 nM

Substance: PAAHSWS-NH2 [ALK1_A3]
EC50 [1, 5]: > 10000 nM
Activation of ALKR (in words) [1]: not active
Active (√ active / × not active) ([1]; IP1 accumulation, ALKR, tick or cross in column Active (EC50)): ×
EC50 [1, 4]: > 10000 nM

EC50 of IP1 accumulation in CHO-K1 cells transfected with ALKR [3]: 330 nM
Substance: Aplysia leucokinin-like peptide 12

Substance: LAAFHAWS-NH2 [ALK12]
EC50 [1, 4]: 295 nM

EC50 of IP1 accumulation in CHO-K1 cells transfected with ALKR [3]: 62 nM
Substance: Aplysia leucokinin-like peptide 11

Substance: AGFAPWA-NH2 [ALK4]
EC50 [1, 4]: 19.5 nM

Substance: PAFSPWS-NH2 [ALK9]
EC50 (Anopheles LKR): 724 nM
EC50 [1, 4]: 9.77 nM

Substance: PAFSAWS-NH2 [ALK3]
EC50 [1, 4]: 11.7 nM

Substance: AAFHSWS-NH2 [ALK1_A1]
EC50 [1, 4]: 141 nM
